Sander's compilation of Henry's law constants (doi:10.1002/jsfa.1137)

Test: Henry solubility constant Hcp at 310 K (mol/(m3 Pa))
Settings: reference: van Ruth et al. (2002)

Structure (SMILES)	Henry solubility constant Hcp at 310 K
CCCCCCO [1-hexanol]	0.25
CCCO [1-propanol]	0.32
CCCCCCCCC(C)=O [2-decanone]	0.018
CCCCCCC(C)=O [2-octanone]	0.029
CCCC(C)O (stereo not given) [2-pentanol]	0.3
CCCCOC(C)=O [butyl ethanoate]	0.028
CCCC(=O)OCC [ethyl butanoate]	0.021
CCOC(C)=O [ethyl ethanoate]	0.039
CCCCCCC=O [heptanal]	0.02
CCCCCCCC=O [octanal]	0.021

Second part, the compound after the results:

Henry solubility constant Hcp at 310 K	Structure (SMILES)
0.039	CCCCCC(C)=O [2-heptanone]
0.065	CCCCCCCC(C)O (stereo not given) [2-nonanol]
0.33	CC(C)CCO [3-methyl-1-butanol]
0.0064	CSC [dimethyl sulfide]
0.039	CCCOC(C)=O [propyl ethanoate]
